Laboratory results from patent US20110251175A1, “Stigmine Conjugates for Substance Use Disorders” (priority 2008, published 2011).
Where two headings read alike, the source gives them in different places.

Experiments:
BuChE = BuChE (Homo sapiens, UniProt P06276); assay: In vitro screening assay, BuChE inhibition; assay type: biochemical
Text: An in vitro screening assay with various conjugates was completed according to the methods described in Ellman G L et al., Biochem Pharmacol., 7:88-95 (1961) and in Nadarajah B, J. Anal. Toxicol., 16:192-193 (1992), both of which are herein incorporated by reference in their entireties. The assay method was completed according to the following: […]

[1] = system: male CD IGS (Sprague Dawley derived) rats; assay: Dose range for cholinergic effects / max tolerated dose; conditions: for TIMTD/ MED: ratio of max tolerated dose to hypothermia MED, rats s.c.
Method: The dose range and time course for cholinergic effects of the compounds of the invention was determined as described below. • Subjects: Two hundred eight male CD IGS (Sprague Dawley derived) rats were received at 126-150 grams and maintained four per cage on a regular light/dark cycle (lights on 0600-1800) with ad libitum food and water for about 1 week before commencement of experimentation. • Apparatus: Injections were made subcutaneously (s.c.) with a 25-gauge needle on a 1-mL tuberculin syringe. Observations were made in a 5½×10-inch polycarbonate rat housing cage. Temperature was taken with a rat rectal probe on a Model BAT-12 electronic thermometer. • Compound Preparation: Test compounds were dissolved for example, in 0.9% saline. […] Injection volumes were 1 mL/kg, if the test compound was sufficiently soluble. If less soluble, maximum injection volume were 5 mL/kg.
Test Compounds were dosed at 1, 3, 10, 30, and 100 mg/kg • Procedure: The rats were brought to the test room in the home cage. Baseline temperatures were measured just before injection. After injection s.c., the rat was placed in the observation cage. At 0.5, 1, 2, and 4 hours after injection, it was observed briefly for gross signs; salivation was scored as absent, clearly present, or copious; and rectal temperature was taken. In observation for gross signs, special attention was paid to fasciculation (muscle twitch), tremor/ataxia, and abnormal gait. The experiment was designed to allow assessment of one rat per time point per minute. Salivation score and temperature were determined within this constraint, but only the most salient of gross signs were noted. After the 4-hour observation point, or sooner if signs of distress were observed, the rat was euthanized by CO2 inhalation. • Data Analysis: Gross signs, salivation score, and temperature at each time point were tabulated for inspection. This is a combination of within-subject design for control and between-subjects design for dose effect. That is, the effect of the compound was measured against the reading taken immediately before injection, and the difference between doses of the compound was measured between groups of three rats.

[2] = system: male CD IGS (Sprague Dawley derived) rats; assay: Measurement of hypothermia (marker of CNS penetration for AChE inhibitors); assay type: in vivo; conditions: Rattus norvegicus, sc, read-out: Hypothermia MED (mg/kg)
Method: The induction of hypothermia was determined for compounds of the invention according to the methods described in Freedman, et al., European Journal of Pharmacology, 187 (1990), 193-199, which is incorporated by reference herein. Hypothermia is a marker of CNS penetration for AChE inhibitors.
The dose range and time course for cholinergic effects of the compounds of the invention was determined as described below. • Subjects: Two hundred eight male CD IGS (Sprague Dawley derived) rats were received at 126-150 grams and maintained four per cage on a regular light/dark cycle (lights on 0600-1800) with ad libitum food and water for about 1 week before commencement of experimentation. • Apparatus: Injections were made subcutaneously (s.c.) with a 25-gauge needle on a 1-mL tuberculin syringe. Observations were made in a 5½×10-inch polycarbonate rat housing cage. […]
Test Compounds were dosed at 1, 3, 10, 30, and 100 mg/kg • Procedure: The rats were brought to the test room in the home cage. Baseline temperatures were measured just before injection. […] At 0.5, 1, 2, and 4 hours after injection, it was observed briefly for gross signs; salivation was scored as absent, clearly present, or copious; and rectal temperature was taken. […] Salivation score and temperature were determined within this constraint, but only the most salient of gross signs were noted. […]

rats = assay: Methamphetamine drug discrimination test
[3] = biological target: T1, human recombinant acetylcholinesterase (Homo sapiens, UniProt P22303); assay: biochemical; conditions: human recombinant AChE, 25° C., 30 minutes preincubation, Dixon plot
T1 construct: purchased Sigma Chemical Co (St. Louis, Mo.) C1682
T1 sequence (P22303 32-614): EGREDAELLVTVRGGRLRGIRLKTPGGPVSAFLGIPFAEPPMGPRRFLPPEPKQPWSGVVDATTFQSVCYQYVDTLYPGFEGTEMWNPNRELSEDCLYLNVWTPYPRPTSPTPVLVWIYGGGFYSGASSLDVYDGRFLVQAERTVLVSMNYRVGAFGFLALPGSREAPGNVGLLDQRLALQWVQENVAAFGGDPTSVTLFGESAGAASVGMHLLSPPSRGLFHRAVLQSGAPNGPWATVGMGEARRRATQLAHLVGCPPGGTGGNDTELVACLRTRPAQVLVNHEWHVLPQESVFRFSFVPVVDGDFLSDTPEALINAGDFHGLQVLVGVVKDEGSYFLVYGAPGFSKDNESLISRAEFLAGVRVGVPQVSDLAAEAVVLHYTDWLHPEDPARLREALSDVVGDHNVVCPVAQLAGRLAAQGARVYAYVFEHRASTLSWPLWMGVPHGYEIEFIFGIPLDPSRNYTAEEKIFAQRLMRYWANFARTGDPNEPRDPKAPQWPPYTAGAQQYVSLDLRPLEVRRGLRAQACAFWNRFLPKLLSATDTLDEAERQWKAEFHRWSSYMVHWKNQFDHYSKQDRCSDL

[4] = biological target: T2, AChE (Human recombinant HEK-293 cells) (Homo sapiens, UniProt P22303); assay type: biochemical
T2 construct: host or cells: HEK-293 cells (expression host as printed)
T2 sequence (P22303 32-614): as above

BuChE, sequence (P06276 29-602): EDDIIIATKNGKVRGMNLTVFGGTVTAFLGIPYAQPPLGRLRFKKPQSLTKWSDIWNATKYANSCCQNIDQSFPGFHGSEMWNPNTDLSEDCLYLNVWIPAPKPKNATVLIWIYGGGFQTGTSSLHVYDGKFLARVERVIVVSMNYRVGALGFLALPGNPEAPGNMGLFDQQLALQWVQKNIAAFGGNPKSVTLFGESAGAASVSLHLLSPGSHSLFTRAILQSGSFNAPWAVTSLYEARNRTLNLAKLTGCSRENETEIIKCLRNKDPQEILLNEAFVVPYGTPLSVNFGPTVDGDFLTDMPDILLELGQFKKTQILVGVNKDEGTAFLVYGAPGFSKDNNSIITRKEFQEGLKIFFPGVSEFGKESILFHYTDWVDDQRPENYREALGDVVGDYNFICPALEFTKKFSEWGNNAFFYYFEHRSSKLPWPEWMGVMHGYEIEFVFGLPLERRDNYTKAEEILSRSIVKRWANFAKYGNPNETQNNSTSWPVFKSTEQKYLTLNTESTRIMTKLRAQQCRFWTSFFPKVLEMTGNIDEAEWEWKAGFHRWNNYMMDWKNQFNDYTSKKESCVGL

Row | Compound | BuChE I (%) 10 μM (BuChE; 10 μM) [%] | TIMTD/ MED [1] | further results
1 | C[C@@H](c1cccc(OC(=O)N[C@H]2C[C@@H]2c2ccccc2)c1)N(C)C (stereo in doubt) [Compound 2, S-riva-tranylcypromine] | 67 | 3 | 
2 | CCN(C)C(=O)Oc1cccc([C@H](C)N(C)C)c1 [Compound 1, S-rivastigmine, reference compound] |  |  | BuChE I (%) 10 μM (BuChE): 100%
3 | C[C@@H](c1cccc(OC(=O)N2CCN(C3=Nc4ccccc4Oc4ccc(Cl)cc43)CC2)c1)N(C)C [Compound 3, S-riva-amoxapine] | 6 | ≧10 | 
4 | C[C@@H](c1cccc(OC(=O)N(C)CCCN2c3ccccc3CCc3ccccc32)c1)N(C)C [Compound 4A, S-riva-desipramine] | 60 | ≧30 | 
5 | Cc1ccccc1O[C@H](CCN(C)C(=O)Oc1cccc([C@H](C)N(C)C)c1)c1ccccc1 [Compound 5, S-riva-atomoxetine] | 14 |  | 
6 | C[C@@H](c1cccc(OC(=O)N(C)CCC=C2c3ccccc3CCc3ccccc32)c1)N(C)C [Compound 5A, S-riva-nortriptyline] | 55 | ≧100 | minimal effective dose [2]: ≤ 1 mg/kg; Max Tolerated Dose ([1]; rats, s.c., test doses given in mg/kg): ≧100
7 | C[C@@H](c1cccc(OC(=O)N(C)CCCC2c3ccccc3C=Cc3ccccc32)c1)N(C)C [Compound 6A, S-riva-protriptyline] | 53 | >1 | 
8 | C[C@H](Cc1ccccc1)N(C)C(=O)Oc1cccc([C@H](C)N(C)C)c1 [Compound 7, S-riva-l-methamphetamine] |  |  | generalization to methamphetamine (lever selection) (rats; rats trained to discriminate methamphetamine from vehicle, compound 7 at 0.01-3.2 mg/kg i.p., FIG. 1 top): lack of stimulus generalization to methamphetamine; behavioral disruption (rats; rats, 1.0 mg/kg of compound 7, FIG. 2 lower): without behavioral disruption; rate of responding (rats; rats, compound 7 at 0.01-3.2 mg/kg i.p., FIG. 1 lower): markedly decreased reponse rates
9 | C[C@@H](c1cccc(OC(=O)N(C)CCC(Oc2ccc(C(F)(F)F)cc2)c2ccccc2)c1)N(C)C (stereo partly shown) [Compound 7A, S-riva-fluoxetine] | 15 | ≧30 | 
10 | COCCCC/C(=N\OCCNC(=O)Oc1cccc([C@H](C)N(C)C)c1)c1ccc(C(F)(F)F)cc1 [Compound 8A, S-riva-fluvoxamine] | 6 |  | 
11 | C[C@@H](c1cccc(OC(=O)N2CC[C@@H](c3ccc(F)cc3)[C@H](COc3ccc4c(c3)OCO4)C2)c1)N(C)C [Compound 9A, S-riva-paroxetine] | 4 |  | 
12 | C[C@@H](c1cccc(OC(=O)N(C)CC[C@H](Oc2cccc3ccccc23)c2cccs2)c1)N(C)C [Compound 10A, S-riva-duloxetine] | 36 |  | 
13 | C#CCN(C(=O)Oc1cccc([C@H](C)N(C)C)c1)[C@H](C)Cc1ccccc1 [Compound 11, S-riva-desmethylselegiline] | 17 |  | 
14 | C[C@@H](c1cccc(OC(=O)N(C)[C@@H](C)Cc2ccccc2)c1)N(C)C [Compound 13, S-riva-d-methamphetamine] |  |  | IC50 [3]: 5440 nM
15 | COc1ccccc1CC(C)N(C)C(=O)Oc1cccc([C@H](C)N(C)C)c1 (stereo partly shown) [Compound 15, S-riva-methoxyphenamine] | 30 |  | 
16 | CC(CC1CCCCC1)N(C)C(=O)Oc1cccc([C@H](C)N(C)C)c1 (stereo partly shown) [Compound 16, S-riva-propylhexedrine] |  | ≧10 | 
17 | C#CCN(C(=O)Oc1cccc([C@@H](C)N(C)C)c1)[C@H](C)Cc1ccccc1 [Compound 17, R-riva-desmethylselegiline] | 12 |  | 
18 | C#CCN(C(=O)Oc1ccc2c(c1)[C@]1(C)CCN(C)[C@@H]1N2C)[C@H](C)Cc1ccccc1 [Compound 18, Physo-desmethylselegiline] | 8 |  | 
19 | C[C@@H](Cc1ccccc1)NC(=O)Oc1cccc([C@H](C)N(C)C)c1 [Compound 20, S-riva-d-amphetamine] |  |  | IC50 [3]: 449 nM
20 | CN1CC[C@@]2(C)c3cc(OC(=O)Nc4ccccc4)ccc3N(C)[C@@H]12 [Phenserine, reference compound] |  |  | BuChEI (%) 1 μM [4]: 93%; BuChE I (%) 10 μM (BuChE): 42%
